From article PMC5963591, “Bitopic Binding Mode of an M1 Muscarinic Acetylcholine Receptor Agonist Associated with Adverse Clinical Trial Outcomes” (Molecular Pharmacology, 2018)

Columns and labels:
[1] = Mouse pharmacokinetics, unbound plasma and brain concentrations; type: in vivo; details: mice, 30 minutes after i.p. administration
Method: Pharmacokinetic analyses were conducted as previously described ([Witkin et al., 2017]). Compounds were administered via intraperitoneal injection (in 5% glucose) 30 minutes prior to blood collection. Mice were anesthetized with 3% isoflurane (2 l/min), and blood was collected by cardiac puncture of the left ventricle. Blood was immediately transferred to EDTA tubes and centrifuged at 1000g for 10 minutes at 4°C; the supernatant was collected and frozen. Brains from each mouse were also dissected and snap-frozen on dry ice.
Brain samples were homogenized in three volumes of methanol/water [1:4 (v/v)] by weight. A 25-μl aliquot of each study sample, calibration standard, and control sample was added to a 96-well plate and mixed with 180 μl acetonitrile/methanol [1:1 (v/v)] containing internal standard. The samples were subsequently centrifuged, and the resulting supernatants were diluted 12.5-fold with methanol/water [1:1 (v/v)] prior to analyzing 10-μl aliquots by liquid chromatography–tandem mass spectrometry as previously described ([Bradley et al., 2017]).

[2] = system: murine prion disease; details: doses that rescued learning and memory, ref Bradley et al., 2017; cited from earlier work
[3] = system: wild-type M1 mAChR; test: Agonist bias analysis, IP1 versus ERK1/2 phosphorylation (operational model); type: cell-based, human; details: reference ligand ACh
Excerpt: (§1) For the analysis, all families of agonist curves at each pathway were globally fitted to the model with the parameters, basal, Em, and n shared between all agonists. For full agonists, the LogKA was constrained to a value of zero, whereas for partial agonists this was directly estimated by the curve fitting procedure; the Log(τ/KA) parameter was estimated as a unique measure of activity for each agonist.

[4] = system: patients with AD; parameters: method as in Bodick et al., 1997; details: ref Bodick et al., 1997; cited from earlier work
[5] = system: C57Bl/6J mice; test: Contextual fear conditioning, scopolamine-induced deficit; type: in vivo, mouse; details: for shape of the dose response on learning and memory: escalating i.p. doses with scopolamine […]
Method: C57Bl/6J male mice (aged 8–12 weeks) were acclimatized to the behavioral testing suite at least 2 hours prior to the test. […] Mice were placed in the conditioning chamber (ANY-maze Fear Conditioning System; Stoelting, Dublin, Ireland); after a 2-minute adaptation period, they received three tone/foot shock pairings where the foot shock (unconditioned stimulus; 2 seconds; 0.4 mA) always co-terminated with a tone (conditioned stimulus; 2.8 kH; 85 dB; 30 seconds). The conditioned stimulus–unconditioned stimulus pairings were separated by 1-minute intervals. After the mice completed training, they remained in the conditioning chamber for 1 minute and were then returned to their home cages. The next day, the mice were placed back in the conditioning chamber, and time spent immobile was recorded for 3 minutes to assess context-dependent learning. Data were analyzed using ANY-maze software (Stoelting).

[6] = target: T1, human M1 mAChR (Homo sapiens, UniProt P11229); test: IP1 accumulation after receptor alkylation with phenoxybenzamine (functional interaction with ACh); details: phenoxybenzamine 3 μM for 30 minutes, CHO Flp-In cells
T1 sequence (P11229 1-460): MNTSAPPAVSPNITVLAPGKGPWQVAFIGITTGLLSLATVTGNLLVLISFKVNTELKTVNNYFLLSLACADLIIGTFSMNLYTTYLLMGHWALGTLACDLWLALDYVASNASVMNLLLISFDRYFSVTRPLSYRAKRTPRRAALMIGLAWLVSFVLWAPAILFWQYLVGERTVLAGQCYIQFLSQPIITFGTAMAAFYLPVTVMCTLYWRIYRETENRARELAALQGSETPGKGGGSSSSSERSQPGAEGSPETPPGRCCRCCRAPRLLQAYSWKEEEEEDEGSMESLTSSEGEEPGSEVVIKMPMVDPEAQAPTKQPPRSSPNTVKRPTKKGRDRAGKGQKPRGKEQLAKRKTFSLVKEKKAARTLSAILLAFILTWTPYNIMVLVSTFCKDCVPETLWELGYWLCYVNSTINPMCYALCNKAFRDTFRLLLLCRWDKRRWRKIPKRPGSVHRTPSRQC

[7] = target: T1, human M1 mAChR; test: Kinetic [3H]-NMS binding (dissociation) in membranes; parameters: expressed in transfected cells; host or cells: CHO Flp-In; details: compound 10 μM plus atropine 10 μM
Method: Reactions were terminated by rapid filtration onto GF/B filter paper (Whatman, Maidstone, UK) and three washes with 3 ml ice-cold 0.9% NaCl using a Brandel harvester (M-24TI; Brandel, Fort Lauderdale, FL). Membrane bound radioactivity was determined by liquid scintillation (Ultima Gold; PerkinElmer) counting.

[8] = target: T1, human M1 mAChR; test: IP-One (IP1) accumulation assay, CHO Flp-In human M1 cells; type: cell-based; parameters: expressed in transfected cells; host or cells: CHO Flp-In
Method: Stimulation of IP accumulation was determined using the Cisbio IP-One Gq assay kit per the manufacturer’s instructions. […] CHO Flp-In cells stably expressing the human M1 mAChR were grown to confluence in T75 cell culture flasks at 37°C. Cells were washed with warm phosphate-buffered saline and detached using phosphate-buffered saline with 0.1 M EDTA. Detached cells were centrifuged at 1000g and the cells were resuspended in stimulation buffer.
All IP-One stimulations were terminated by the addition of 3 μl/well IP1-d2 solution, followed by 3 μl/well anti–IP1-cryptate solution and incubation for 1 hour at room temperature with shaking.
Functional concentration-response curves were fitted according to a four-parameter logistic equation (to determine minimum and maximum asymptotes, LogEC50, and slope; GraphPad Prism 6). […] In the absence of antagonist ([B] = 0), this equation becomes the standard four-parameter logistic equation for fitting agonist concentration-response data.

[9] = target: T2, human M1 receptor (Homo sapiens, UniProt P11229); test: ERK1/2 phosphorylation, CHO Flp-In human M1 cells; type: cell-based
T2 construct: expressed in transfected cells; host or cells: CHO Flp-In
T2 sequence (P11229 1-460): T1 sequence (P11229 1-460)
Method: CHO Flp-In cells stably expressing the human M1 receptor were seeded onto transparent 96-well plates at 20,000 cells/well and grown to confluence. Cells were serum starved overnight prior to the experiment. Prior to the stimulations, cells were washed with 100 μl phosphate-buffered saline and then incubated in serum free F12 medium at 37°C. Cells were stimulated with ligands for 5 minutes at 37°C in a final volume of 200 μl. The stimulations were terminated by rapid aspiration and addition of 50 μl lysis buffer supplemented with blocking reagent per the manufacturer’s instructions, followed by gentle agitation at room temperature for 30 minutes. Subsequently, 16 μl of this lysate was transferred to a 384-well white ProxiPlate (PerkinElmer) and incubated with 4 μl premixed antibody solution for 2 hours at room temperature.
as §1

[10] = target: T1, human M1 mAChR; details: 20 nM [^3H]-GSK1034702
[11] = normalized to reference ligand ACh
[12] = transduction coefficient, wild-type M1 mAChR

CCCCCCOc1nsnc1C1=CCCN(C)C1 [Xanomeline, xanomeline]
free brain concentration versus dose [1]: increase linearly with escalating doses
adverse responses [2]: gave adverse responses consistent with the activation of other muscarinic receptor subtypes
Log Bias Factor IP1 – ERK1/2 ΔΔLog10(τ/KA) [3]: 1.1 ± 0.1
effect on cognitive function [4]: significantly improved cognitive function
shape of the dose response on learning and memory [5]: bell shaped

CN1[C@@H]2C[C@@H](OC(=O)[C@H](CO)c3ccccc3)C[C@H]1[C@@H]1O[C@@H]12 [scopolamine]
effect on contextual fear conditioning learning and memory ([5]; doses above 1 mg/kg, 30 minutes prior to training): significant reduction in contextual fear conditioning learning and memory

CC(COc1ccccc1)N(CCCl)Cc1ccccc1 (stereo not drawn) [Phenoxybenzamine, phenoxybenzamine, reference compound]
reduction of the functional human M1 mAChR population [6]: approximately 80%

CC(=O)OCC[N+](C)(C)C [ACh, acetylcholine]
Log Bias Factor IP1 – ERK1/2 ΔΔLog10(τ/KA) [3]: 0.0 ± 0.1

Cc1ccccc1CN1CCC(N2CCC(n3c(=O)[nH]c4ccccc43)CC2)CC1 [TBPB, 1-[1′-(2-methylbenzyl)-1,4′-bipiperidin-4-yl]-1,3-dihydro-2H-benzimidazol-2-one, reference compound]
effect on the [^3H]-NMS dissociation rate [7]: no effect
free brain concentration versus dose [1]: could not be increased beyond that observed at 10 mg/kg
IP1 Emax ([8]; CHO Flp-In human M1 cells): 55.2 ± 3.1
IP1 Accumulation ΔLog10(τ/KA) [8, 11]: 1.1 ± 0.2
IP1 Accumulation Log10(τ/KA) [8, 12]: 8.2 ± 0.2
ERK1/2 Phosphorylation ΔLog10(τ/KA) [9, 11]: −0.3 ± 0.4
ERK1/2 Phosphorylation Log10(τ/KA) [9, 12]: 6.9 ± 0.4
Log Bias Factor IP1 – ERK1/2 ΔΔLog10(τ/KA) [3]: 1.4 ± 0.2
shape of the dose response on learning and memory [5]: no evidence of a bell-shaped dose response
displacement of specific [^3H]-GSK1034702 binding [10]: fully displaced
